Results: patent publication US6455555B1, “Anti-HIV infection agents and method for treating HIV infection” (Kabushiki Kaisha Hayashibara Seibutsu Kagaku Kenkyujo, priority 2001, dated 2002)
Entries after “also recorded” stand apart in the source; their conditions may differ. Where two headings read alike, the source gives them in different places.

What was measured:
HIV (HTLV-IIIB) = assay: microbe, parasite or virus in culture; format: cell-based; settings: for suppression of HIV replication (in words): at the tested concentrations (20-500 μM)
Procedure: To examine the effect on HIV infected cell, MT-4 cells (number of cells at the start of culture 1×10^4/well), that underwent anti-HIV assay, were infected with an HIV (HTLV-IIIB, 200 CCID50/well), cultured at 37° C. for 4 days, and determined for the inhibitory effect on HIV replication, according to the method by Pauels, R. et al., in J. Virol. Methods, 16, 171-185 (1987). Suramin was used as a control.

[1] = cited from earlier work
[2] = system: patient suffering from ARC (HIV infection); assay: Clinical Experiment 1: formulation 1 tablets with active ingredient A given to one ARC patient; format: in vivo, human
Procedure: (§1) The clinical experiments using the agent for anti-HIV infection of the present invention are explained in the following. The clinical experiments described below were conducted in Thailand without informing the patients of the compound names, chemical structures, etc. of the photosensitizing dyes used as the active ingredient.
The agent for anti-HIV infection of the present invention was administered to a patient suffering from ARC. They had been diagnosed with HIV infection five years before and received administration of AZT/ddI/RTV for 14 months.
His bronchial asthma, a symptom of ARC, was also cured.

[3] = system: patients suffering from ARC or AIDS (HIV infection); assay: Clinical Experiment 2: formulation 1 tablets with active ingredient A given to seven patients with ARC or AIDS; format: in vivo, human
Procedure: as §1
Seven patients suffering from ARC or AIDS were given the agent for anti-HIV infection of the present invention of formulation 1 containing the active ingredient A. Their medical history before treatment was as follows:
Along therewith, their appetite increased, rash, one of the symptoms of ARC, decreased, hemorrhoid was cured, and insomnia was ameliorated.

[4] = 20 μM, MT-4 cells, HTLV-IIIB 200 CCID50/well, 4 days at 37° C.
[5] = 100 μM, MT-4 cells, HTLV-IIIB 200 CCID50/well, 4 days at 37° C.
[6] = 500 μM, MT-4 cells, HTLV-IIIB 200 CCID50/well, 4 days at 37° C.
[7] = after a further 16 weeks, daily dose 1000 μg, following 8 weeks at 500 μg
[8] = 8 weeks, 500 μg/day, one patient per line

In the case of `CCN1C=CC(=CC=C(C=Cc2cc[n+](CC)c3ccccc23)c2cc[n+](CC)c3ccccc23)c2ccccc21.[I-].[I-]` [Active ingredient A], the “Inhibition (%) of HIV replication” value (HIV (HTLV-IIIB); [4]) is reported as 1%, the “Inhibition (%) of HIV replication” value (HIV (HTLV-IIIB); [5]) is reported as 2% and the “Inhibition (%) of HIV replication” value (HIV (HTLV-IIIB); [6]) is reported as 1%. The “suppression of HIV replication (in words)” value (HIV (HTLV-IIIB); listed as active ingredients A) was “no anti-virus activity to suppress reproduction of HIV; also recorded: did not suppress the replication of HIV”, the “side effects such as toxic state” value ([1]; oral administration at 4 g/kg) was “does not cause any side effects” and the “other improvement (in words)” value ([2]; after 8 weeks, daily dose 500 μg) was “increased appetite and increased pectoral muscle”. The body weight ([2]; after 8 weeks, daily dose 500 μg, 55.6 kg before administration) was 56.9 kg, the CD4 count ([2]; after 8 weeks, daily dose 500 μg, 121/mm^3 before administration, person) was 181 /mm^3 and the “bronchial asthma, a symptom of ARC” value ([2]; after a further 16 weeks, daily dose 1000 μg) was “cured”. The CD4 count [2, 7] was 192 /mm^3, the body weight [2, 7] was 57.1 kg and the “Improvement (Symptoms of ARC etc.)” value [3, 8] was “Increased appetite; also recorded: Amelioration of insomnia; also recorded: Cure of hemorrhoids; also recorded: Decrease of rash”. The Side effects [3, 8] was “None” and the “overall clinical effect (in words)” value ([3]; HIV-infected patients) was “most of the patients showed an increase in the CD4 count and in the body weight”.

Molecule `Cc1ccc(C(=O)Nc2ccc(S(=O)(=O)O)c3cc(S(=O)(=O)O)cc(S(=O)(=O)O)c23)cc1NC(=O)c1cccc(NC(=O)Nc2cccc(C(=O)Nc3cc(C(=O)Nc4ccc(S(=O)(=O)O)c5cc(S(=O)(=O)O)cc(S(=O)(=O)O)c45)ccc3C)c2)c1` [Suramin, reference compound] has an inhibition at 0.8 µM (HIV (HTLV-IIIB); Human immunodeficiency virus 1, MT4, 96 h, 0.8 μM, MT-4 cells, HTLV-IIIB 200 CCID50/well, 4 days at 37° C., read-out: Inhibition (%) of HIV replication) of 2%, an inhibition at 4 µM (HIV (HTLV-IIIB); Human immunodeficiency virus 1, MT4, 96 h, 4 μM, MT-4 cells, HTLV-IIIB 200 CCID50/well, 4 days at 37° C., read-out: Inhibition (%) of HIV replication) of 10% and an inhibition at 20 µM (HIV (HTLV-IIIB); Human immunodeficiency virus 1, MT4, 96 h, 20 μM, MT-4 cells, HTLV-IIIB 200 CCID50/well, 4 days at 37° C., read-out: Inhibition (%) of HIV replication) of 100%. The inhibition at 100 µM (HIV (HTLV-IIIB); Human immunodeficiency virus 1, MT4, 96 h, 100 μM, MT-4 cells, HTLV-IIIB 200 CCID50/well, 4 days at 37° C., read-out: Inhibition (%) of HIV replication) was 100%.

With `CCCCCCCN1C(C)=CSC1=CC=C(C=Cc1scc(C)[n+]1CCCCCCC)c1scc(C)[n+]1CCCCCCC.[I-].[I-]` [Active ingredient B] the “Inhibition (%) of HIV replication” value (HIV (HTLV-IIIB); [4]) was 2%, the “Inhibition (%) of HIV replication” value (HIV (HTLV-IIIB); [5]) was 1% and the “Inhibition (%) of HIV replication” value (HIV (HTLV-IIIB); [6]) was 2%. The “suppression of HIV replication (in words)” value (HIV (HTLV-IIIB)) was “no anti-virus activity to suppress reproduction of HIV; also recorded: did not suppress the replication of HIV”, the LD50 ([1]; intraperitoneal administration) was 54 mg/kg and the LD50 ([1]; oral administration) was 1500 mg/kg.
